Reference: paper PMC12441834, “Highly Potent and Subtype-Selective Sperm-Specific Potassium Channel SLO3 Inhibitors Display High Tissue Exposure in the Murine Female Reproductive Tract” (ACS Pharmacology & Translational Science, 2025)
pIC50: −log10 of the molar value. Values joined by “and” are separate entries in the source; they are usually repeats but may differ in a detail not shown here. Equal values may be shown once.

Assays:
mouse SLO3 = target: T1, mouse SLO3 (Mus musculus, UniProt O54982); experiment: Whole-cell recording, mouse SLO3-γ2 expressed in HEK293 cells; format: cell-based; settings: for pIC50: HEK293 cells transfected with murine SLO3-γ2, read-out: mSLO3 IC50; for Hill coefficient: mouse SLO3-γ2 in HEK293 cells
T1 construct: expressed in transfected cells; host or cells: HEK293 (transient, Lipofectamine 3000, with pmaxGFP as marker)
T1 sequence (O54982 1-1121): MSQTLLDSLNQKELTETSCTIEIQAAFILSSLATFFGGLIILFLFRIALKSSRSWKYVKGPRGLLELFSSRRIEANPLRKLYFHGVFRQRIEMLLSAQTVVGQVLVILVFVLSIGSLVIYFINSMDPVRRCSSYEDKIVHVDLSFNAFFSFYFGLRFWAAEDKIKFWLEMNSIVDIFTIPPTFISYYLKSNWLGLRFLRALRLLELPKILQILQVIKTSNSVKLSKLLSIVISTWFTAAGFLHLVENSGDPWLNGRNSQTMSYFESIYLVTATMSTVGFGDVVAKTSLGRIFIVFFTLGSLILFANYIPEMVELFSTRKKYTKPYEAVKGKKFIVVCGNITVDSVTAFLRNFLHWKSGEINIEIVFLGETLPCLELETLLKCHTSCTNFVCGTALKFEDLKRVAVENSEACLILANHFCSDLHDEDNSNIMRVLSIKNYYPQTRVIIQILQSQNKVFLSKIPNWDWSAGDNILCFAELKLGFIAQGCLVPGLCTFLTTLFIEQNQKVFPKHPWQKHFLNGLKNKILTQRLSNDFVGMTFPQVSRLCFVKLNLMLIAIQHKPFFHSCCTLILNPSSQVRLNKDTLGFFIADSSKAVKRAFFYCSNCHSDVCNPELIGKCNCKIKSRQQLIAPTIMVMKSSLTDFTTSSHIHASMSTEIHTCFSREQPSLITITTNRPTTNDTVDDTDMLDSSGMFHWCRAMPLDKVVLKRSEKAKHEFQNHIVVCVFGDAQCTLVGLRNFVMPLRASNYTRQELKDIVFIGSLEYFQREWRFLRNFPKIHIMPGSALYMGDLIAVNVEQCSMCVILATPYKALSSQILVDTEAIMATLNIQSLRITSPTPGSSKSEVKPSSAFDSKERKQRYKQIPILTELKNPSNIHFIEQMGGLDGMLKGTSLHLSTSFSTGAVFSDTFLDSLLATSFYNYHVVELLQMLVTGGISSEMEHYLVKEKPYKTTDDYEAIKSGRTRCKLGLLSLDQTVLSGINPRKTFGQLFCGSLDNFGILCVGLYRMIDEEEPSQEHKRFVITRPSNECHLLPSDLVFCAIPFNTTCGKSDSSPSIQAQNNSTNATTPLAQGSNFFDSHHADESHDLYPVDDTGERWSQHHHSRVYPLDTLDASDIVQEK
T1 sequence (Q5M8M9 24-314 partner): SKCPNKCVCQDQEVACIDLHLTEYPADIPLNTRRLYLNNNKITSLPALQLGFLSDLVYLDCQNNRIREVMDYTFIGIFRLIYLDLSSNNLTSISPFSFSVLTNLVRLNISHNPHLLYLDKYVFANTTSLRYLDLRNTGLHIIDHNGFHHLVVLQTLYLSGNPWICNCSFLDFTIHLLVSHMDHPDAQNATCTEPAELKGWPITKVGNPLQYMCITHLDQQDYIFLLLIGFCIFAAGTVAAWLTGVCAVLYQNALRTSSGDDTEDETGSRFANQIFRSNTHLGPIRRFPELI
Procedure: HEK293 cells were plated at a density of ∼400,000 cells per 40 mm dish the day before transfection. Lipofectamine 3000 transfection reagent (catalog #L3000015; Thermo Fisher Scientific) was used to transfect HEK293 cells following manufacturer’s instructions. Per 40 mm dish, 2.25 μg of mouse SLO3 and its auxiliary subunit γ2 cDNAs (1:1) were added to cell layers that were 70–90% confluent. As a marker for transfection, cells were cotransfected with pmaxGFP, a CMV plasmid expressing green fluorescent protein (Amaxa Biosystems) at 0.2 μg per dish. After transfection, the cells were incubated at 37 °C with 5% CO2 for 2–4 d until recording.
Voltage-clamp recordings were performed using an Axopatch 200B amplifier (Molecular Devices). Recordings were filtered at 5 kHz with the internal filter of the amplifier and digitized at 50 kHz using a Digidata 1550B digitizer (Molecular Devices). Recording pipettes were pulled from borosilicate glass with tip resistances of 3–8 MΩ after filling with pipette solution containing (in mM): 140 KMES, 1 EGTA, 10 HEPES, pH 7.4 with KOH. Bath solutions contained (in mM): 135 NaMES, 5 KMES, 2 MgCl2, and 10 HEPES, pH 7.4 with NaOH. Experiments were performed at room temperature (∼22 °C). Whole-cell currents were evoked from a holding potential of −60 mV in steps from −80 to +100 mV in 10 mV increments. Test compounds were prepared daily from a 10 mM stock solution (in DMSO).
Data were analyzed with a pClamp 10.6 (Molecular Devices). VU6047606 and VU6032735 inhibition dose–response relationships were fit by the Hill equation in OriginPro 7.5 (OriginLab Corporation): R=1/1+(C/IC50)^n+Ioff , in which R is fractional unblock, C is compound concentration, IC50 is the half inhibition concentration, n is the Hill coefficient, and I off is an offset item for leak current. Error bars in the figures represent the SDs. Each data point is averaged from at least 5 measurements. Curve-fitting results are reported as the fitted values with standard error, which was estimated by OriginPro according to the Error Propagation formula.

[1] = Multispecies hepatocyte MetID; format: in vitro ADME, minipig; settings: 4 h incubation with hepatocytes, 10 μM
Adrenergic α1D = Adrenergic α1D (Homo sapiens, UniProt P25100); experiment: LeadProfilingScreen radioligand binding
Adrenergic α2A = Adrenergic α2A (Homo sapiens, UniProt P08913); experiment: LeadProfilingScreen radioligand binding
[2] = system: Calcium Channel L-Type, Benzothiazepine; experiment: LeadProfilingScreen radioligand binding; set-up: species or system rat
Dopamine D2S = Dopamine D2S (Homo sapiens, UniProt P14416); experiment: LeadProfilingScreen radioligand binding
Dopamine D3 = Dopamine D3 (Homo sapiens, UniProt P35462); experiment: LeadProfilingScreen radioligand binding
Dopamine D4.4 = Dopamine D4.4 (Homo sapiens, UniProt P21917); experiment: LeadProfilingScreen radioligand binding
Endothelin ETB = Endothelin ETB (Homo sapiens, UniProt P24530); experiment: LeadProfilingScreen radioligand binding
[3] = system: GABAA, Flunitrazepam, Central; experiment: LeadProfilingScreen radioligand binding; set-up: species or system rat
Glutamate, Kainate = experiment: LeadProfilingScreen radioligand binding; set-up: species or system rat
Purinergic P2X = experiment: LeadProfilingScreen radioligand binding; set-up: species or system rat

Chain of Dopamine D4.4 (P21917 whole entry): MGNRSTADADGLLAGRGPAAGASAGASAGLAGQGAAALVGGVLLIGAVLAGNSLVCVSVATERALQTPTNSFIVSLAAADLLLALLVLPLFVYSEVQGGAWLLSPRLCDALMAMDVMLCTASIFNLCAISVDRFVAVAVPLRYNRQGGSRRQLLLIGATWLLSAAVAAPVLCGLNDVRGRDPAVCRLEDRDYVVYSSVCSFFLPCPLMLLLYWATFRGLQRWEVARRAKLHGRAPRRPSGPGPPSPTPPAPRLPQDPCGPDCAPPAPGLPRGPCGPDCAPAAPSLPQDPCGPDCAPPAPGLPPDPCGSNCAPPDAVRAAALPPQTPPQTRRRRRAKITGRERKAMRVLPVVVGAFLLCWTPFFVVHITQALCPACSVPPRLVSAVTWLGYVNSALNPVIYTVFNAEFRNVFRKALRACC
Chain of Dopamine D3 (P35462 whole entry): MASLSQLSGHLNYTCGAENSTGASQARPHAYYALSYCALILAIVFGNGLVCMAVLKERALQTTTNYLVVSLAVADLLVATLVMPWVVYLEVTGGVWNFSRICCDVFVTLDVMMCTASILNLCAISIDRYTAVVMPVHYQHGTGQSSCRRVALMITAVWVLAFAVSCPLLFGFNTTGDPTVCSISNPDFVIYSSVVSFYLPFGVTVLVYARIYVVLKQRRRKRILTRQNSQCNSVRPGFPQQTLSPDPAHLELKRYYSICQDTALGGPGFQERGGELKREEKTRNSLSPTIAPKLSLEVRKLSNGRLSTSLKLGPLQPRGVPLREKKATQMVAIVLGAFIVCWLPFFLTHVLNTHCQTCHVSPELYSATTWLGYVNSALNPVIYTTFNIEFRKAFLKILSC
Chain of Adrenergic α2A (P08913 whole entry): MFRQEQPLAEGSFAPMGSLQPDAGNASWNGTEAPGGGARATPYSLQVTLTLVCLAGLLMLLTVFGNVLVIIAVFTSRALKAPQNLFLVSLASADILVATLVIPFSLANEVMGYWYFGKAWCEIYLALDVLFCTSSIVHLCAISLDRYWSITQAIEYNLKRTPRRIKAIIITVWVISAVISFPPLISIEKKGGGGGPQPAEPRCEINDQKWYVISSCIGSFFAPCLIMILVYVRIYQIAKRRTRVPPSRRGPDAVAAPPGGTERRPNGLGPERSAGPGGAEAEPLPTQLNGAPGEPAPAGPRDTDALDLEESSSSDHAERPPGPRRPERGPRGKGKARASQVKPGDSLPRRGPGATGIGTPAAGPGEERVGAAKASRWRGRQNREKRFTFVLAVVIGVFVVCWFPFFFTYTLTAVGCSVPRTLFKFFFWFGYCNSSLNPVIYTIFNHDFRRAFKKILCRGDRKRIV
Chain of Endothelin ETB (P24530 27-442): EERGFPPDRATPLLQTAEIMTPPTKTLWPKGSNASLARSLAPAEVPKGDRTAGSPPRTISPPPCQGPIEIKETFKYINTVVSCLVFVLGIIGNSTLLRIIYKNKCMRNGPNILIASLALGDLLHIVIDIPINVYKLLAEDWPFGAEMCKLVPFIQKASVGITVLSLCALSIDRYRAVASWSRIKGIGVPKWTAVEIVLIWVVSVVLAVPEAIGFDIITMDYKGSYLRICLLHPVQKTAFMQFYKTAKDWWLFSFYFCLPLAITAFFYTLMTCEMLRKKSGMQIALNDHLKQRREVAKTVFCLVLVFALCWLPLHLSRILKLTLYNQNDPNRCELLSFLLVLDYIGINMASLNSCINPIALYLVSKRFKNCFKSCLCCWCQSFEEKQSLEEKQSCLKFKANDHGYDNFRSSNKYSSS
Chain of Dopamine D2S (P14416 1-414 isoform P14416-2): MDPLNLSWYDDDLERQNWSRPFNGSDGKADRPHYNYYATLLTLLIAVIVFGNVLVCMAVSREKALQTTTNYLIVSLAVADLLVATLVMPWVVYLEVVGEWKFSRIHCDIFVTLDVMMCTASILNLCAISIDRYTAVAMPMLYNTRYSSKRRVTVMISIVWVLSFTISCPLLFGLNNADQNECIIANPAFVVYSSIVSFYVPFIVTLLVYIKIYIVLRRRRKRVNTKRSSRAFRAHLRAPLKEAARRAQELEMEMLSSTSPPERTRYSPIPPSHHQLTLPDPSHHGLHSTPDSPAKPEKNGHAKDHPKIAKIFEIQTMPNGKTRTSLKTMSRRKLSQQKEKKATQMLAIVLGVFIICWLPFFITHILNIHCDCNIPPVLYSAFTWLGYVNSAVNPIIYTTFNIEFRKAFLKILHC
Chain of Adrenergic α1D (P25100 whole entry): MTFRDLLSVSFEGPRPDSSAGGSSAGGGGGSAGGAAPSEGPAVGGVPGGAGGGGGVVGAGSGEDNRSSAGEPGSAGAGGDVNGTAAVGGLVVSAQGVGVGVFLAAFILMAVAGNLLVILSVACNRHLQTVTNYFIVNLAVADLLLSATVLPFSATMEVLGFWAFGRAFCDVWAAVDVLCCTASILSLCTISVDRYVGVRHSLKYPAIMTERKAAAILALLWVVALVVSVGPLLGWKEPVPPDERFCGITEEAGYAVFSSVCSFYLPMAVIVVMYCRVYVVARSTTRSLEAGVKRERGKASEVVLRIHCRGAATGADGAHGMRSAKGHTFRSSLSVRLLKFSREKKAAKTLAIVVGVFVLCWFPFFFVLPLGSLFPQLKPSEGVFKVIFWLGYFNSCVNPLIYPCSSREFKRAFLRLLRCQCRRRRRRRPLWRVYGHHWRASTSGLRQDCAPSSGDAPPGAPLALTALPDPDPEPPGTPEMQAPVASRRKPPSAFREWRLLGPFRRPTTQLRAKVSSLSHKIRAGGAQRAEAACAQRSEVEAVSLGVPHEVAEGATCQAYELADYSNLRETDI

| Compound | pIC50 (mouse SLO3) | Hill coefficient (mouse SLO3) | fold less potent on murine SLO3 than on human SLO3 (mouse SLO3; mouse versus human SLO3) [fold] | % of Parent Related Material, Pig [1] | inhibition at 10 µM (Adrenergic α1D) [%] | inhibition at 10 µM (Adrenergic α2A) [%] | % inhibition at 10 μM [2] [%] | inhibition at 10 µM (Dopamine D2S) [%] | inhibition at 10 µM (Dopamine D3) [%] | inhibition at 10 µM (Dopamine D4.4) [%] | inhibition at 10 µM (Endothelin ETB) [%] | % inhibition at 10 μM [3] [%] | % inhibition at 10 μM (Glutamate, Kainate) [%] | % inhibition at 10 μM (Purinergic P2X) [%] | fold more potent than VU6047606 on mouse SLO3 (mouse SLO3; HEK293 cells, mSLO3-γ2) [fold] |
| --- | --- | --- | --- | --- | --- | --- | --- | --- | --- | --- | --- | --- | --- | --- | --- |
| Cc1cc(Cl)cc2sc(O[C@H]3CCN(C(=O)CCCS(=O)(=O)c4cccc(Br)c4)C[C@H]3F)nc12 [VU6047606] | 5.94 | 0.83 ± 0.19 | ~7 | 93.66% and > 82% | 13 | -4 | 49 | -7 | 19 | -8 | 9 | 11 | -6 | 1 |  |
| O=C(c1ccc(OCc2ccc(OC(F)(F)F)cc2)cc1)N1CCN(c2ccc(C(F)(F)F)cn2)CC1 [VU6032735] | 6.14 | 1.03 ± 0.02 |  | > 98% | 2 | -3 | 67 | -2 | 3 | -5 | 1 | 5 | -4 | 1 | ~1.6 |
